Measurements reported in patent US6352958B1, “Cycloimido-substituted benzofused heterocyclic herbicides” (FMC Corporation, priority 1997, dated 2002).

What was measured:
Assay type in all cases: in vivo
[1] = test system: wheat (Triticum aestivum var. Lew); assay: Postemergence herbicidal activity, wheat; details: rate of application 0.3 Kg/Ha, rated after 12-17 days
Description: (§1) The benzofused heterocyclic compounds of this invention were tested for pre- and postemergence herbicidal activity using a variety of crops and weeds. The test plants included soybean (Glycine max var. Winchester), field corn (Zea mays var. Pioneer 3732), wheat (Triticum aestivum var. Lew), morningglory (Ipomea lacunosa or Ipomea hederacea), velvetleaf (Abutilon theophrasti), green foxtail (Setaria viridis), Johnsongrass (Sorghum halepense), blackgrass (Aloepecurus myosuroides), common chickweed (Stellaria media), and common cocklebur (Xanthium strumarium L.).
(§2) For preemergence testing, two disposable fiber flats (8 cm×15 cm×25 cm) for each rate of application of each candidate herbicide were filled to an approximate depth of 6.5 cm with steam-sterilized sandy loam soil. The soil was leveled and impressed with a template to provide five evenly spaced furrows 13 cm long and 0.5 cm deep in each flat. Seeds of soybean, wheat, corn, green foxtail, and johnsongrass were planted in the furrows of the first flat, and seeds of velvetleaf, morningglory, common chickweed, cocklebur, and blackgrass were planted in the furrows of the second flat. The five-row template was employed to firmly press the seeds into place. A topping soil of equal portions of sand and sandy loam soil was placed uniformly on top of each flat to a depth of approximately 0.5 cm. Flats for postemergence testing were prepared in the same manner except that they were planted 9-14 days prior to the preemergence flats and were placed in a greenhouse and watered, thus allowing the seeds to germinate and the foliage to develop.
(§3) In both pre- and postemergence tests, a stock solution of the candidate herbicide was prepared by dissolving 0.27 g of the compound in 20 mL of water/acetone (50/50) containing 0.5% v/v sorbitan monolaurate. For an application rate of 3000 g/ha of herbicide a 10 mL portion of the stock solution was diluted with water/acetone (50/50) to 45 mL.
(§4) The preemergence flats were initially subjected to a light water spray. The four flats were placed two by two along a conveyor belt (i.e., the two preemergence followed by the two postemergence flats). The conveyor belt fed under a spray nozzle mounted about ten inches above the post-emergent foliage. The preemergent flats were elevated on the belt so that the soil surface was at the same level below the spray nozzle as the foliage canopy of the postemergent plants. The spray of herbicidal solution was commenced and once stabilized, the flats were passed under the spray at a speed to receive a coverage equivalent of 100 L/ha. At this coverage the application rates are those shown in the above table for the individual herbicidal solutions. The preemergence flats were watered immediately thereafter, placed in the greenhouse and watered regularly at the soil surface. The postemergence flats were immediately placed in the green-house and not watered until 24 hours after treatment with the test solution. Thereafter they were regularly watered at ground level. After 12-17 days the plants were examined and the phytotoxicity data were recorded.
(§5) Phytotoxicity data were taken as percent control. Percent control was determined by a method similar to the 0 to 100 rating system disclosed in “Research Methods in Weed Science,” 2nd ed., B. Truelove, Ed.; Southern Weed Science Society; Auburn University, Auburn, Ala., 1977.

[2] = test system: soybean (Glycine max var. Winchester); assay: Postemergence herbicidal activity, soybean; details: rate of application 0.3 Kg/Ha, rated after 12-17 days
Description: as §1, §2, §3, §4, §5

[3] = test system: soybean (Glycine max var. Winchester); assay: Preemergence herbicidal activity, soybean; details: Rate of Application 0.3 Kg/Ha, examined after 12-17 days
Description: as §1, §2, §3, §4, §5

[4] = test system: green foxtail (Setaria viridis); assay: Postemergence herbicidal activity, green foxtail; details: rate of application 0.3 Kg/Ha, rated after 12-17 days
Description: as §1, §2, §3, §4, §5

[5] = test system: Johnsongrass (Sorghum halepense); assay: Preemergence herbicidal activity, johnsongrass; details: Rate of Application 0.3 Kg/Ha, examined after 12-17 days
Description: as §1, §2, §3, §4, §5

[6] = test system: field corn (Zea mays var. Pioneer 3732); assay: Postemergence herbicidal activity, corn; details: rate of application 0.3 Kg/Ha, rated after 12-17 days
Description: as §1, §2, §3, §4, §5

[7] = test system: common cocklebur (Xanthium strumarium L.); assay: Postemergence herbicidal activity, cocklebur; details: rate of application 0.3 Kg/Ha, rated after 12-17 days
Description: as §1, §2, §3, §4, §5

[8] = test system: common cocklebur (Xanthium strumarium L.); assay: Preemergence herbicidal activity, cocklebur; details: Rate of Application 0.3 Kg/Ha, examined after 12-17 days
Description: as §1, §2, §3, §4, §5

[9] = test system: green foxtail (Setaria viridis); assay: Preemergence herbicidal activity, green foxtail; details: Rate of Application 0.3 Kg/Ha, examined after 12-17 days
Description: as §1, §2, §3, §4, §5

[10] = test system: morningglory (Ipomea lacunosa or Ipomea hederacea); assay: Postemergence herbicidal activity, morningglory; details: rate of application 0.3 Kg/Ha, rated after 12-17 days
Description: as §1, §2, §3, §4, §5

[11] = test system: velvetleaf (Abutilon theophrasti); assay: Preemergence herbicidal activity, velvetleaf; details: Rate of Application 0.3 Kg/Ha, examined after 12-17 days
Description: as §1, §2, §3, §4, §5

[12] = test system: morningglory (Ipomea lacunosa or Ipomea hederacea); assay: Preemergence herbicidal activity, morningglory; details: Rate of Application 0.3 Kg/Ha, examined after 12-17 days
Description: as §1, §2, §3, §4, §5

[13] = test system: velvetleaf (Abutilon theophrasti); assay: Postemergence herbicidal activity, velvetleaf; details: rate of application 0.3 Kg/Ha, rated after 12-17 days
Description: as §1, §2, §3, §4, §5

[14] = test system: Johnsongrass (Sorghum halepense); assay: Postemergence herbicidal activity, johnsongrass; details: rate of application 0.3 Kg/Ha, rated after 12-17 days
Description: as §1, §2, §3, §4, §5

[15] = test system: common chickweed (Stellaria media); assay: Postemergence herbicidal activity, chickweed; details: rate of application 0.3 Kg/Ha, rated after 12-17 days
Description: as §1, §2, §3, §4, §5

[16] = test system: common chickweed (Stellaria media); assay: Preemergence herbicidal activity, chickweed; details: Rate of Application 0.3 Kg/Ha, examined after 12-17 days
Description: as §1, §2, §3, §4, §5

[17] = test system: field corn (Zea mays var. Pioneer 3732); assay: Preemergence herbicidal activity, corn; details: Rate of Application 0.3 Kg/Ha, examined after 12-17 days
Description: as §1, §2, §3, §4, §5

[18] = test system: wheat (Triticum aestivum var. Lew); assay: Preemergence herbicidal activity, wheat; details: Rate of Application 0.3 Kg/Ha, examined after 12-17 days
Description: as §1, §2, §3, §4, §5

| Compound | Postemergence herbicidal activity (% control) WHT [1] [%] | Postemergence herbicidal activity (% control) SOY [2] [%] | PREEMERGENCE HERBICIDAL ACTIVITY (% CONTROL) SOY [3] [%] | Postemergence herbicidal activity (% control) SETVI [4] [%] | PREEMERGENCE HERBICIDAL ACTIVITY (% CONTROL) SORHA [5] [%] | Postemergence herbicidal activity (% control) CRN [6] [%] | Postemergence herbicidal activity (% control) XANPE [7] [%] | PREEMERGENCE HERBICIDAL ACTIVITY (% CONTROL) XANPE [8] [%] | PREEMERGENCE HERBICIDAL ACTIVITY (% CONTROL) SETVI [9] [%] | Postemergence herbicidal activity (% control) IPOSS [10] [%] | PREEMERGENCE HERBICIDAL ACTIVITY (% CONTROL) ABUTH [11] [%] | PREEMERGENCE HERBICIDAL ACTIVITY (% CONTROL) IPOSS [12] [%] | Postemergence herbicidal activity (% control) ABUTH [13] [%] | Postemergence herbicidal activity (% control) SORHA [14] [%] | Postemergence herbicidal activity (% control) STEME [15] [%] | PREEMERGENCE HERBICIDAL ACTIVITY (% CONTROL) STEME [16] [%] | PREEMERGENCE HERBICIDAL ACTIVITY (% CONTROL) CRN [17] [%] | PREEMERGENCE HERBICIDAL ACTIVITY (% CONTROL) WHT [18] [%] |
| --- | --- | --- | --- | --- | --- | --- | --- | --- | --- | --- | --- | --- | --- | --- | --- | --- | --- | --- |
| COC(=O)Cc1nc2c(-n3c(=O)cc(C(F)(F)F)n(C)c3=O)c(F)cc(Br)c2o1 [Compound 49] | 70 | 95 | 95 | 100 | 90 | 80 | 30 | 90 | 100 | 100 | 100 | 100 | 100 | 90 | 40 | 20 | 80 | 50 |
| CCCc1cc2c(Cl)cc(F)c(-n3c(=O)cc(C(F)(F)F)n(C)c3=O)c2o1 [Compound 223] | 40 | 95 | 100 | 100 | 100 | 90 | 100 | 90 | 100 | 100 | 100 | 100 | 100 | 100 | 100 | 100 | 80 | 50 |
| Cn1c(C(F)(F)F)cc(=O)n(-c2ccc(Cl)c3cc(C(C)(C)C)oc23)c1=O [Compound 226] | 40 | 70 | 70 | 100 | 80 | 80 | 90 | 60 | 100 | 95 | 100 | 90 | 100 | 80 | 80 | 90 | 70 | 50 |
| Cn1c(C(F)(F)F)cc(=O)n(-c2c(F)cc(F)c3cc(C(C)(C)C)oc23)c1=O [Compound 228] | 50 | 90 | 100 | 100 | 100 | 80 | 95 | 90 | 100 | 100 | 100 | 100 | 100 | 90 | 80 | 100 | 95 | 80 |
| Cn1c(C(F)(F)F)cc(=O)n(-c2ccc(Cl)c3cc(CBr)oc23)c1=O [Compound 232] | 50 | 75 | 20 | 30 | 25 | 30 | 40 | 10 | 40 | 80 | 90 | 80 | 100 | 10 | 20 | 20 | 50 | 30 |
| Cn1c(C(F)(F)F)cc(=O)n(-c2ccc(Cl)c3cc(C(Br)Br)oc23)c1=O [Compound 233] | 30 | 90 | 40 | 30 | 50 | 60 | 30 | 20 | 60 | 100 | 100 | 95 | 100 | 30 | 30 | 20 | 70 | 30 |
| CC(=O)OC(C)(C)c1cc2c(Cl)cc(F)c(-n3c(=O)cc(C(F)(F)F)n(C)c3=O)c2o1 [Compound 253] | 100 | 95 | 100 | 100 | 100 | 100 | 100 |  | 100 | 100 | 100 | 100 | 100 | 100 | 100 | 100 | 100 | 95 |
